System: Bloodstream form of Trypanosoma brucei, strain Lister 427
Assay: Trypanosoma brucei growth inhibition assay (CellTiter-Glo, 24 h)
Format: cell-based
Conditions: Trypanosoma brucei; T. Brucei Growth Inibition Assay, class symbols; read-out: T. Brucei GI EC50
Procedure: Bloodstream form of Trypanosoma brucei, strain Lister 427 (provided by Prof. Miguel Navarro, Instituto de Parasitologia y Biomedicina “Lopez-Neyra” Avda. Conocimiento S/N Parque Tecnologico Ciencias de la Salud—Spain; ref. Navarro M. and Cross G. A. M. Molecular and Cellular Biology, 1996, Vol. 16, No. 7, pp. 3615-3625) were grown in IMDM Iscove's Modified Dulbecco's Medium (SIGMA #17633) supplemented with: 3.024 g/l sodium bicarbonate, hypoxanthine 1 mM, thymidine 0.16 mM, bathocuprione sulfonic acid 0.05 mM, cysteine 1.5 mM, ß-mercaptoethanol […] and 10% foetal bovine serum (heat-inactivated at 56° C. for 30 min). Parasites were grown at 37° C. in flasks with vented caps in a 5% CO2 incubator to a maximum cell density of about 2×10^6/ml and diluted every two-three days.
The compounds of the invention were dissolved in DMSO and transferred to assay plates by acoustic droplet ejection (ATS-100, EDC Biosystems, USA) in order to obtain an appropriate concentration and to keep the concentration of DMSO below or equal to 0.25% in the final assay volume of 30 μL. 1500 parasites resuspended in 30 μL of culture medium were then transferred to each well of a 384-well plate.
After an incubation period of 24 hours at 37° C., each well is added 15 μl of CellTiter-Glo® Reagent (Promega) and incubated at room temperature. 5-10 min post incubation, the plate is read using a luminometer (ViewLux®). A known inhibitor of the growth of T. brucei was used as the reference positive control.

| SMILES | EC50 [nM] |
| --- | --- |
| COc1nc2ccccc2cc1-c1cnc(C2CN(CC3CCOC3)CCN2C(=O)Cn2c(C#N)nc3ccccc32)[nH]1 (stereo not drawn) | 1010 to 5000 |
| COc1nc2ccccc2cc1-c1cnc([C@@H]2CN(CC3CCOC3)CCN2C(=O)Cn2c(C(N)=O)nc3ccccc32)[nH]1 (stereo partly drawn) | 510 to 1000 |
| COc1nc2ccccc2cc1-c1cnc([C@@H]2CN(CC3CCOC3)CCN2C(=O)Cn2c(C)nc3cncnc32)[nH]1 (stereo partly drawn) | 100 to 500 |
| COc1nc2ccccc2cc1-c1cnc([C@@H]2CN(CC3CCOC3)CCN2C(=O)Cn2c(C)nc3ccc(S(C)(=O)=O)cc32)[nH]1 (stereo partly drawn) | 100 to 500 |
| COc1nc2ccccc2cc1-c1cnc([C@@H]2CN(CC3CCOC3)CCN2C(=O)Cn2c(S(C)(=O)=O)nc3ccccc32)[nH]1 (stereo partly drawn) | 100 to 500 |
| COc1nc2ccccc2cc1-c1cnc([C@@H]2CN(CC3CCOC3)CCN2C(=O)Cn2c(C)nc3ncncc32)[nH]1 (stereo partly drawn) | 1010 to 5000 |
| COc1nc2ccccc2cc1-c1cnc([C@@H]2CN(CC3CCOC3)CCN2C(=O)Cc2noc3ccc(F)cc23)[nH]1 (stereo partly drawn) | 1010 to 5000 |
| COc1ccc2onc(CC(=O)N3CCN(CC4CCOC4)C[C@H]3c3ncc(-c4cc5ccccc5nc4OC)[nH]3)c2c1 (stereo partly drawn) | 100 to 500 |
| COc1ccc2nc(C(F)(F)F)n(CC(=O)N3CCOCC3c3ncc(-c4cc5ccccc5nc4OC)[nH]3)c2c1 (stereo not drawn) | 100 to 500 |
| COc1ccc2nc(C(F)(F)F)n(CC(=O)N3CCN(CC4COC4)CCC3c3ncc(-c4cc5ccccc5nc4OC)[nH]3)c2c1 (stereo not drawn) | 100 to 500 |
| COc1ccc2nc(C(F)(F)F)n(CC(=O)N3CCN(C)CCC3c3ncc(-c4cc5ccccc5nc4OC)[nH]3)c2c1 (stereo not drawn) | 510 to 1000 |
| COc1ccc2nc(C)n(CC(=O)N3CCS(=O)(=O)CC3c3ncc(-c4cc5ccccc5nc4OC)[nH]3)c2c1 (stereo not drawn) | 1010 to 5000 |
| COc1ccc2nc(C)n(CC(=O)N3CCCCC3c3ncc(-c4cc5ccccc5nc4OC)[nH]3)c2c1 (stereo not drawn) | 100 to 500 |
| COc1ccc2nc(C)n(CC(=O)N3CCN(CC4COC4)CCC3c3ncc(-c4cc5ccccc5nc4OC)[nH]3)c2c1 (stereo not drawn) | 510 to 1000 |
| COc1ccc2nc(C)n(CC(=O)N3CCN(C[C@H]4CCOC4)CC3c3ncc(-c4ccc(-c5ccccc5)nc4OC)[nH]3)c2c1 (stereo partly drawn) | 100 to 500 |
| COc1ccc2nc(C)n(CC(=O)N3CCN(C)CCC3c3ncc(-c4cc5ccccc5nc4OC)[nH]3)c2c1 (stereo not drawn) | 1010 to 5000 |
| COc1ccc2nc(C)n(CC(=O)N3CCOCC3c3ncc(-c4cc5ccccc5nc4OC)[nH]3)c2c1 (stereo not drawn) | 1010 to 5000 |
| COc1ccc2nc(C)n(CC(=O)N3CCN(Cc4cnccn4)CCC3c3ncc(-c4cc5ccccc5nc4OC)[nH]3)c2c1 (stereo not drawn) | 100 to 500 |
| COc1ccc2nc(C)n(CC(=O)N3CCN(C[C@@H]4CCOC4)CC3c3ncc(-c4ccc(-c5ccccc5)nc4OC)[nH]3)c2c1 (stereo partly drawn) | 1010 to 5000 |
| COc1ccc2cc(C)n(CC(=O)N3CCCCC3c3ncc(-c4cc5ccccc5nc4OC)[nH]3)c2c1 (stereo not drawn) | 100 to 500 |
| COc1ccc2cc(C)n(CC(=O)N3CCS(=O)(=O)CC3c3ncc(-c4cc5ccccc5nc4OC)[nH]3)c2c1 (stereo not drawn) | 510 to 1000 |
| COc1ccc2cc(C)n(CC(=O)N3CCOCC3c3ncc(-c4cc5ccccc5nc4OC)[nH]3)c2c1 (stereo not drawn) | 510 to 1000 |
| COc1ccc2cc(C)n(CC(=O)N3CCN(C)CCC3c3ncc(-c4cc5ccccc5nc4OC)[nH]3)c2c1 (stereo not drawn) | 510 to 1000 |
| CCC(=O)CCCN1CCN(C(=O)Cc2c[nH]c3ncccc23)C(c2ncc(-c3cc4ccccc4nc3OC)[nH]2)C1 (stereo not drawn) | 510 to 1000 |
| CCC(=O)CCCN1CCN(C(=O)Cc2c(C)[nH]c3ccc(OC)cc23)C(c2ncc(-c3cc4ccccc4nc3OC)o2)C1 (stereo not drawn) | 1010 to 5000 |
| CCC(=O)CCCN1CCN(C(=O)Cc2c(C)[nH]c3ccc(OC)cc23)C(c2ncc(-c3ccccc3)[nH]2)C1 (stereo not drawn) | 100 to 500 |
| COc1ccc2nc(C)n(CC(=O)N3CCN(C4CCN(C(C)=O)CC4)C[C@H]3c3ncc(-c4cc5ccccc5nc4OC)[nH]3)c2c1 | 510 to 1000 |
| COc1ccc2nc(C)n(CC(=O)N3CCN(C4CCS(=O)(=O)CC4)C[C@H]3c3ncc(-c4cc5ccccc5nc4OC)[nH]3)c2c1 | 510 to 1000 |
| COc1ccc2nc(C(F)(F)F)n(CC(=O)N3CCN(CCn4cnnc4)C[C@H]3c3ncc(-c4cc5ccccc5nc4OC)[nH]3)c2c1 | 1010 to 5000 |
| COc1ccc2nc(C)n(CC(=O)N3CCN(Cc4nnc(C)o4)C[C@H]3c3ncc(-c4cc5ccccc5nc4OC)[nH]3)c2c1 | 100 to 500 |
